Results taken from patent US20250339569A1, “CARBONIC ANHYDRASE IX LIGANDS” (priority 2021, published 2025).
Like-named read-outs stand apart in the source and are kept apart here.

Key:
[1] = Plasma stability assay, human plasma; conditions: 37°C
[2] = Plasma stability assay, mouse plasma; conditions: mouse plasma, 37°C, 24 h
[3] = Biodistribution study (SPECT/CT) in SK-RC-52 tumor-bearing mice with or without gelofusine; format: in vivo, NMRI nude mice; conditions: female, NMRI nude, mouse, in vivo, iv, total radioactivity, peak tumor uptake, typical (conclusion)
Procedure: The effect on tumor uptake of prior injection of gelofusine for kidney protection was investigated in mice bearing the SK-RC-52 tumor. Biodistribution was evaluated using in vivo SPECT/CT imaging. Prior to the in vivo study the compounds (ligands) were initially radiolabeled with In-111 and the stability of radiolabeled compounds was evaluated in buffer at three different timepoints.
The study was performed in female NMRI nude mice (approximately 6 weeks of age) from Janvier Labs, France, housed up to 5 mice per cage.
The column was washed with 2 mL water, and then the final product was eluted from the column in EtOH solution (50%) • The sample was formulated in PBS to the final concentration of 150 MBq/mL and 5 nmol/mL.
SK-RC-52 cells were cultured in RPMI 1640 with GlutaMax-I (Thermo Fisher Scientific #61870044) supplemented with 10% fetal bovine serum+1% penicillin/streptomycin, harvested, washed twice in RPMI 1640 and resuspended at 2×10^7 cells/mL in RPMI 1640. HT-29 cells were cultured in McCoy's 5a Medium Modified (Sigma #M9309). For inoculation of HT-29 cells, cells were harvested, washed twice in PBS and resuspended at 5×10^7 cells/mL in PBS. Cells were kept on ice until inoculation.
Animals were anaesthetized (isoflurane, 2-4% in ambient air supplemented with 100% 02) prior to tumor inoculation. The tumor cells (100 μL suspension of either SK-RC-52 cells (2×10^6 cells/animal) or HT-29 cells (5×10^6 cells/animal)) were subcutaneously inoculated in the right flank using a 1-mL syringe equipped with a 27 G needle. Tumor growth and animal weight were measured twice per week. Tumor size was measured by caliper and the volume was estimated using the following formula: 0.52×(length×width^2). When tumor sizes reached 150-250 mm^3, animals were randomized into groups (n=3) of similar average tumor volume and body weight.
Animals were injected intravenously with In-111-labeled compounds (single bolus, 22.3-31.2 MBq, ˜1 nmol ligand, injection volume: 100 μL) in the lateral tail vein using a 29 G syringe.
CT was performed with helical scan, 300 ms exposure, reconstruction resolution of 250 μm. SPECT was performed with multi-pinhole scan and a 30 s frame time. For the quantification of the radioactivity uptake, regions of interests (ROIs) were drawn over the tumor, kidney, liver, and heart (estimate of blood) identified on the images. Uptake was expressed as percent of injected dose per gram tissue (% ID/g).

[4] = biological target: human CAIX (Homo sapiens, UniProt Q16790); test: Radioligand saturation binding and equilibration on CHO-huCAIX; set-up: host or cells: CHO-VGT / CHO cells
Procedure: (§1) After attainment of equilibrium, the cells were harvested, and the bound fraction of the compounds was measured. The resulting saturation binding data were analyzed using Graph Pad Prism 8.3.
(§2) CHO cells transfected with human, dog, and mouse CAIX (CHO-huCA9 T04J-1/20 K1, CHO-dogCA9 T05J-9/20 K4, CHO-murCA9 T05J-3/20 K4) were obtained from InSCREENex (Germany).
(§3) A molar excess of 3BP-3565 was used as a blocking peptide to assess non-specific binding in autoradiographic studies. 3BP-3565 binds with a similar affinity to CAIX and blocks binding sites of test compounds. For the blocking solution, a 10 mM stock solution of 3BP-3565 was prepared by dissolution in DMSO.
(§4) CHO cells were maintained in Ham's medium supplemented with 10% fetal bovine serum, 2 mM L-glutamine, 100 U/mL Penicillin and 0.1 mg/mL streptomycin under standard cell culture conditions. The cells were grown in uncoated cell culture flasks (150 cm^2, Biochrom) to subconfluence and then split 1:2-1:3. Approximately 24 hours before the assay, cells were detached by incubation with Accutase and carefully tapping the flasks. Detached cells were resuspended in medium and collected by centrifugation (300 g, 5 min, RT). Cell pellets were resuspended in cell culture medium and counted using a particle counter (CASY Model TT, Scharfe Systems, Germany). Cell concentrations were adjusted to 3×10^5 mL^−1, and 1.000 μL per well of the suspension were dispensed into poly-D-lysine-coated flat-clear-bottom 24 well plates.
(§5) Compound radiolabeling was performed as follows. […] Then, 25 mg/mL methionine in 1 M sodium acetate buffer pH 5 was added at a final concentration of 0.1 M sodium acetate. Subsequently, the mixture was heated to 80° C. for 25 min, followed by cooling for 5 minutes. Finally, 20 μL of 200 mg/mL ascorbic acid solution, 2.5 μL of 5 mg/mL DTPA and 2.5 μL of 5% TWEEN-20 per 100 μL reaction mixture were added, resulting in the concentrated study solution. For quality control, an aliquot of the labeling solution was diluted 1:40 with 0.1% TWEEN-20 in 0.1 M sodium acetate buffer pH 5. Five microliters of the diluted labeling solution were injected onto a Poroshell SB-C18 2.1×50 mm, 2.7 μm column. HPLC analysis was performed as follows: Gradient A: H2O, 0.1% TFA, Gradient B: Acetonitrile (MeCN), gradient from 5% B to 70% B within 15 min, flow rate of 0.5 mL/min; detector: NaI, DAD 215 nm. The peak eluting with the dead volume represents free radionuclide, the peak eluting with the ligand-specific retention time as determined with a non-labeled sample represents the radiolabeled compound.
The assessment of the time needed until attainment of equilibration on CHO-huCAIX and CHO-dgCAIX was performed as follows. The 10 mM 3BP-3565 stock solution was diluted with assay medium (Ham's medium without additives) to prepare an 8-μM blocking working solution. The radiolabeling mixtures were diluted with assay medium to prepare 160 nM radioligand working solutions. Subsequently, 1.6 and 3.2 nM radioligand dilutions were prepared by diluting the radioligand working solutions 1:100 and 1:50, respectively, with assay medium. Approximately 24 hours after re-seeding (3×10^5 mL^−1 cells per well), the medium was aspirated, and the cells were washed once with assay medium (700 μL). To determine total binding, 700 μL of binding medium and 100 μL of the radioligand dilutions were added to the wells in triplicates.
To determine non-specific binding, 600 μL of binding medium, 100 μL of the […] 3BP-3565 blocking solution and 100 μL of the radioligand dilutions were added to the wells in triplicates. The plates were incubated for 1 h, 3 h, 6 h, and 8 h at 37° C. under standard cell culture conditions (5% CO2). At the end of the incubation time, the plates were placed on ice while aspirating the radioligand solutions. Subsequently, the cells were washed with ice-cold PBS (0.5 mL, 1 mL, 1 mL). […]

[5] = biological target: T1, mouse CAIX (Mus musculus, UniProt Q8VHB5); test: Radioligand saturation binding on CHO-msCAIX; conditions: CHO-msCAIX, single experiment
T1 construct: host or cells: CHO-VGT / CHO cells
T1 sequence (Q8VHB5 32-437): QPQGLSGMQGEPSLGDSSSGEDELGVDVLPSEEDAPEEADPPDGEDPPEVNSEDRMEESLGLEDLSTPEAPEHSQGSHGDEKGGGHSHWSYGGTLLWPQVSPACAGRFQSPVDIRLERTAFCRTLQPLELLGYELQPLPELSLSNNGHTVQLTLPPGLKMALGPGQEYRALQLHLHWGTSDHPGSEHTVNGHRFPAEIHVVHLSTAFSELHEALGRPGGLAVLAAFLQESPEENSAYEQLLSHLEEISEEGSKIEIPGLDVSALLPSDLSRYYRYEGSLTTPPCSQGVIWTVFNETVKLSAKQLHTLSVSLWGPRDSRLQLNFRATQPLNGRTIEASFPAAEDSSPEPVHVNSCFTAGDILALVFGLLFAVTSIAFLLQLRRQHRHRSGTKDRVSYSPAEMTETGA
Procedure: as §1, §2, §3, §4, §5
The radioligand saturation binding on CHO-msCAIX was determined as follows. […] Their associated radioactivity was counted using a gamma counter and normalized to the measured protein concentration of each well. […]

[6] = dog, in vivo
[7] = system: SK-RC-52 (ccRCC) human cancer cell line xenograft; test: In vivo efficacy, biodistribution and tolerability of 225Ac-DPI-4452 in SK-RC-52 xenograft mouse model; set-up: species or system NMRI nude mice; conditions: SK-RC-52 model
[8] = as above; set-up: species or system NMRI nude mice; conditions: female, NMRI nude, mouse, iv, total radioactivity, SK-RC-52 model, 15 kBq, 4 hours after dosing
[9] = system: HT-29 (CRC) human cancer cell line xenograft; test: In vivo efficacy, biodistribution and tolerability of 225Ac-DPI-4452 in HT-29 xenograft mouse model; set-up: species or system NMRI nude mice; conditions: HT-29 model
[10] = as above; set-up: species or system NMRI nude mice; conditions: female, NMRI nude, mouse, iv, total radioactivity, HT-29 model, 15 kBq, 4 hours after dosing
[11] = colon, small intestine and stomach
[12] = kidney, read-out: kidney uptake

CC(C)C[C@@H]1NC(=O)[C@H](Cc2cccc(NC(=O)CCCS(N)(=O)=O)c2)NC(=O)[C@H](CC(=O)O)NC(=O)[C@H]2CCCN2C(=O)[C@H](CCC(=O)O)NC(=O)[C@@H](NC(=O)[C@H](CCC(N)=O)NC(=O)CN2CCN(C(=O)CN3CCN(CC(=O)O)CCN(CC(=O)O)CCN(CC(=O)O)CC3)CC2)CSCc2cccc(c2)CSC[C@@H](C(N)=O)NC(=O)[C@H](CO)NC(=O)[C@H](Cc2c[nH]c3ccccc23)NC(=O)[C@H]([C@@H](C)O)NC1=O (natLu complex, metal not drawn) [3BP-4555]
% intact compound remaining after 24 h incubation [1]: >95% | % intact compound remaining (incubation time) [2]: >95%

CC(C)C[C@@H]1NC(=O)[C@H](Cc2ccc(NC(=O)CCS(N)(=O)=O)cc2)NC(=O)[C@H](CC(=O)O)NC(=O)[C@H]2CCCN2C(=O)[C@H](CCC(=O)O)NC(=O)[C@@H](NC(=O)[C@H](CCC(N)=O)NC(=O)CN2CCN(CC(=O)O)CCN(CC(=O)O)CCN(CC(=O)O)CC2)CSCc2cccc(c2)CSC[C@@H](C(N)=O)NC(=O)[C@H](CO)NC(=O)[C@H](Cc2c[nH]c3ccccc23)NC(=O)[C@H]([C@@H](C)O)NC1=O [[^111In]In-DPI-4501, metal not drawn]
tissue uptake [3]: 7 %ID/g | koff ([4]; CHO-huCAIX): 0.00012 s⁻¹ | Kd ([4]; CHO-huCAIX, first independent experiment, read-out: pKd (converted)): 0.158 nM | Kd ([4]; CHO-huCAIX, read-out: Mean pKd ± SD (converted)): 0.251 nM | Kd ([4]; CHO-huCAIX, second independent experiment, read-out: pKd (converted)): 0.398 nM | Kd ([4]; human CAIX expressed in CHO cells, 8 h at 37°C, read-out: pKd (converted)): ≤ 1 nM | Mean pKd ± SD [5]: 7.9 | Kd ([5]; read-out: pKd (converted)): 12.6 nM | half-life [6]: 68.9 min | half-life ([6]; iv): 5.88 min

CC(C)C[C@@H]1NC(=O)[C@H](Cc2cccc(NC(=O)CCCS(N)(=O)=O)c2)NC(=O)[C@H](CC(=O)O)NC(=O)[C@H]2CCCN2C(=O)[C@H](CCC(=O)O)NC(=O)[C@@H](NC(=O)[C@H](CCC(N)=O)NC(=O)CN2CCN(C(=O)CN3CCN(CC(=O)O)CCN(CC(=O)O)CCN(CC(=O)O)CC3)CC2)CSCc2cccc(c2)CSC[C@@H](C(N)=O)NC(=O)[C@H](CO)NC(=O)[C@H](Cc2c[nH]c3ccccc23)NC(=O)[C@H]([C@@H](C)O)NC1=O [^225Ac-DPI-4452, metal not drawn]
creatinine values versus vehicle ([7]; 135 kBq, day 14): slightly elevated | tolerability of treatment ([7]; single 15, 45 or 135 kBq i.v.): well tolerated | tissue uptake at 4 h ([8]; SK-RC-52 tumor, ex vivo gamma counter, read-out: tumor uptake): 39.1 ± 1.6 %ID/g | tissue uptake at 4 h [8, 11]: < 1.1 %ID/g | tissue uptake at 4 h [8, 12]: 4.9 ± 0.2 %ID/g | creatinine values versus vehicle ([9]; 135 kBq, day 14): slightly elevated | tolerability of treatment ([9]; single 15, 45 or 135 kBq i.v.): well tolerated | tissue uptake at 4 h ([10]; HT-29 tumor, ex vivo gamma counter, read-out: tumor uptake): 11.3 ± 1.3 %ID/g | tissue uptake at 4 h [10, 11]: < 1.1 %ID/g | tissue uptake at 4 h [10, 12]: 7.9 ± 1.3 %ID/g
